The values below come from PMC8557913, “Characterization of Phosphopantetheinyl Hydrolase from Mycobacterium tuberculosis” (Microbiology Spectrum, 2021).

Experiment [1] concerns the target PptH (Rv2795c) (Mycobacterium tuberculosis, UniProt I6YEE1). The experiment is described as follows: biochemical.
For experiment [2], the target named is T1, Sfp (Bacillus subtilis, UniProt P39135).
T1 sequence (P39135 1-224): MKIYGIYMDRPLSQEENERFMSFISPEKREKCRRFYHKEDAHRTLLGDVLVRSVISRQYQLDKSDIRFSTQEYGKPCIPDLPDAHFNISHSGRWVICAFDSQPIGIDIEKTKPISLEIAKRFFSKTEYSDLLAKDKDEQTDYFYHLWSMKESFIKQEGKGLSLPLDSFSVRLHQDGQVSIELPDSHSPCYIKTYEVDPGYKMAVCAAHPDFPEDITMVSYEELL
The experiment is described as follows: transfer of biotin-labelled Ppt to apo-carrier protein, streptavidin blot. Type of experiment: biochemical. Particulars: labelled compound; co-substrate apo-AcpM (also PKS13 ACP, EcEntB, EcACP, KpACP, PaACP); 50 mM Tris-HCl pH 7.5, 15 mM MgCl2, 37°C.

PptH (Rv2795c), sequence (I6YEE1 1-310): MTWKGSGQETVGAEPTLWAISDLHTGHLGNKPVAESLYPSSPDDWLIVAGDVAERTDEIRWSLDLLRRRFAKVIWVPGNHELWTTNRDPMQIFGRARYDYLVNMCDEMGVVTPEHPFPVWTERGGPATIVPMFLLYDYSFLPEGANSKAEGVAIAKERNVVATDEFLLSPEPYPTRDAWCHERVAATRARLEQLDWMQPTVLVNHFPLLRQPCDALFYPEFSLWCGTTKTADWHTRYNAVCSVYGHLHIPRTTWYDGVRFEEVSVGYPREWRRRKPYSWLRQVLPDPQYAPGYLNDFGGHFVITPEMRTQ

The compound `Nc1ncnc2c1ncn2[C@@H]1O[C@H](COP(=O)(O)O)[C@@H](O)[C@H]1O` [AMP] showed an IC50 in experiment [1] of 456 µM. For the compound `CC(C)(COP(=O)(O)OP(=O)(O)OC[C@H]1O[C@@H](n2cnc3c(N)ncnc32)[C@H](O)[C@@H]1OP(=O)(O)O)[C@@H](O)C(=O)NCCC(=O)NCCSCC(=O)NCCOCCOCCNC(=O)CCCC[C@@H]1SC[C@@H]2NC(=O)N[C@@H]21` [biotin-PEG-ACM-CoA], the “transfer of biotin-labelled Ppt to apo-carrier protein, streptavidin blot” value in experiment [2] is “Upon incubation of the *CoA probe with apo-AcpM and Sfp”.
